Measured values as given in US12139744B2, “Stabilisation of biological samples” (QIAGEN GmbH, priority 2013, dated 2024).
* marks the point of attachment. Cbz = O=C(OCc1ccccc1)*; CH2F = FC*

Experiments:
18S ribosomal DNA = test: 18S rDNA increase in plasma of stored blood (qPCR, 66 bp and 500 bp amplicons); format: cell-based, human; conditions: for Released DNA (18S rDNA) after storage: 3 and 6 days RT, vs unstabilized EDTA blood
Procedure: Blood obtained from donors was collected into 10 ml K2 EDTA tubes (BD). 4.5 ml of the respectively collected blood was mixed with 0.9 ml of different stabilization solutions (see below examples on the details of the tested stabilization solutions).
All stabilized blood samples were set up in triplicates per condition and test time point. At time point 0 (reference), immediately after mixing the stabilization solution and blood, plasma was generated and the circulating extracellular DNA was extracted. The residual stabilized blood sample was stored for three days and six days at room temperature.
Plasma was generated from the stabilized and unstabilized (EDTA) blood samples by inverting the blood containing tubes for four times. Then, the tubes were centrifuged for 10 minutes at 1900×g at 4° C. 2.5 ml of the plasma fraction was transferred into a fresh 15 ml falcon tube and centrifuged for 10 minutes at 16.000×g at 4° C. 2 ml of the respectively cleared plasma was used for extracellular nucleic acid isolation using the QIAamp circulating nucleic acid kit (QIAGEN) according to the manufacturer's instructions.
The isolated extracellular DNA was analyzed using two different qPCR assays, targeting different fragment lengths of the 18S ribosomal DNA:
Cycle threshholds of the individual samples were translated into amount of gDNA in the eluate, according to a gDNA standard curve. The gDNA amount of the storage time points was compared to the time zero gDNA level from the same donor and is shown as fold increase in the figures. Especially the increase of the 500 bp fragment in the plasma fraction of the blood sample after storage is an indication for a lysis/destruction of white blood cells. Thus, the lower the amount of released 500 bp DNA, the better the performance of the stabilization method.

[1] = tested on: FOS, IL1B, IL8 and TP53 transcripts; test: Transcript level stabilisation in stored blood, real time RT-PCR; format: cell-based, human; conditions: blood incubated at RT for 0, 24 and 72 hours; DMPA 5% v/v final in EDTA blood, 5xMOPS pH5.5
Excerpt: A test system and study setup was established that allows the identification of reagent compositions that have gene transcript stabilisation capabilities, as indicated by constant levels of transcripts from selected genes (c-fos, IL-1beta, IL-8, p53). These transcripts were identified in prior studies as very unstable transcripts during storage, which are induced or down regulated (gains and losses of transcripts) within minutes after blood collection and were therefore chosen as “worst case” markers for screening purposes.
Blood was collected from multiple donors into replicate EDTA blood tubes (BD, [−] control of sample stabilisation) and PAXgene Blood RNA Tubes (PreAnalytiX) serving as [+] control of sample stabilisation. PAXgene Blood RNA tubes contain a composition (see also background of the invention) that lysis cells and thereby “freeze” the gene transcription profile. PAXgene Blood RNA tubes are for stabilizing blood for gene expression analysis. One aim was to find stabilization method that not based on cell lysis but achieves the same or similar performance as the PAXgene Blood RNA tubes in transcript level stabilization. […]
Transcript levels of all RNA samples were analysed by real time RT-PCR using monoplex assays of FOS, IL1B, IL8 and TP53, normalized to the amount of template input into the reaction. […]

CD3 on lymphocytes = test: aCD3 FACS analysis of cell and cell surface epitope integrity; format: cell-based, human; conditions: EDTA blood, test solution 5% v/v DMPA, RT 0 h, 24 h, 72 h
Procedure: FIG. 5: Fluorescence activated cell sorting (aCD3 FACS) analysis of sample aliquots from blood collected from one donor into EDTA tubes. Blood aliquots were subjected to FACS using PE-conjugated anti-CD3 antibody from samples that were not incubated after blood collection (0 h) and samples after one and three days of incubation at RT (24 h, 72 h). The number of fluorescence-labelled cells was counted and the intensity of the fluorescence signal per event was quantified. Intensity (x-axis) and number of fluorescence signals (y-axis) are shown as histograms. Thresholds were defined to differentiate unspecific weak fluorescence signals (−) from stronger specific fluorescence signals caused by specifically bound anti-CD3 antibody to cells (+). […]
Cell and cell surface epitope integrity was analysed by fluorescence activated cell sorting (FACS) using fluorescence conjugated anti-CD3 antibody
In addition, cell and cell surface epitope integrity was analysed in the stabilized samples by fluorescence activated cell sorting (FACS). In detail, the presence and accessibility of cell surface proteins was analysed by binding of fluorescence conjugated antibody (PE-labelled anti-CD3) directed against cellular epitope CD3 that is specific for lymphocytes, while other white blood cell subtypes (monocytes, neutrophilic granulocytes) are CD3 negative.

blood samples = test: Inspection of plasma for hemolysis; format: cell-based, human; conditions: Example 4: 2.5% and 5% DMPA with caspase inhibitor
Excerpt: The focus of the analysis was the stabilization of the extracellular nucleic acid population as determined by analyzing the increase of 18S rDNA. Shown is the increase of DNA relative to time point 0 with 2.5%, 5% and 7.5% N,N dimethylpropanamide (DMPA) or 5% DMAA with caspase inhibitor (fold change) using different amplicon lengths of 18SrRNA gene. Bars indicate the mean of the triplicate samples per condition and test time point. […] Thus, a stabilization of the extracellular nucleic acid population was achieved. Furthermore, the obtained plasma was inspected in order to analyse whether hemolysis occurred.

PKC = conditions: cited from earlier work
calpain II = target: T1, calpain II (Homo sapiens, UniProt P17655); conditions: irreversible inhibitor; cited from earlier work
T1 sequence (P17655 1-700): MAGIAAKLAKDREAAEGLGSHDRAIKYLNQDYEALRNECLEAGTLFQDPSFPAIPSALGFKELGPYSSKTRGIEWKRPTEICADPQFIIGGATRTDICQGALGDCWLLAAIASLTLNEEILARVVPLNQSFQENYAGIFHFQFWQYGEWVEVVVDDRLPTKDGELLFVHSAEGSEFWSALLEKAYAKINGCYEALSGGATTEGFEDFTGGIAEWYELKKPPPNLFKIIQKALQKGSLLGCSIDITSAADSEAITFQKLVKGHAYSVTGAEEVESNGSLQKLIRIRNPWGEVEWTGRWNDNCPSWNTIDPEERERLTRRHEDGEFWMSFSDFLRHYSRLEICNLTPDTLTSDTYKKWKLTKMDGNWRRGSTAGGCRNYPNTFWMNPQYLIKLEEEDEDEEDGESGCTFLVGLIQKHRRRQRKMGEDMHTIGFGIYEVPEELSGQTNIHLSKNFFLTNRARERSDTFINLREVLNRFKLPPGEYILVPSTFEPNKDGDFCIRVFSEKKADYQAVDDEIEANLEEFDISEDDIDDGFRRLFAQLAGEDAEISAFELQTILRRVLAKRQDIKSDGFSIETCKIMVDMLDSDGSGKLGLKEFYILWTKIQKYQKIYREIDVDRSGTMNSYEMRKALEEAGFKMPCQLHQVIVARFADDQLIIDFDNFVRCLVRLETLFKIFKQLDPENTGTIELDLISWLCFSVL
T1 sequence (P04632 1-268 partner): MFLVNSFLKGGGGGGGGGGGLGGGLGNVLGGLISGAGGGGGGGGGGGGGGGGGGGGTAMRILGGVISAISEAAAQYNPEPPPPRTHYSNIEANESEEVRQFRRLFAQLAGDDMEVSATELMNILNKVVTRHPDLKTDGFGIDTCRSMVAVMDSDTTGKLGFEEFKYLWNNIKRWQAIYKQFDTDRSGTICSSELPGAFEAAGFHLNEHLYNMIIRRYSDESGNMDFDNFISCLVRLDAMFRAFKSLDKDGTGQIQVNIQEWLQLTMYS

cells = conditions: cited from earlier work

With `CCC(=O)N(C)C` [DMPA, N,N-dimethylpropanamide] the “Increase in 18S rDNA relative to time point 0” value (18S ribosomal DNA; Example 2: DMPA […], 2% or 2.5% without caspase inhibitor, 7.2 mg K2 EDTA/ml, RT up to 6 days, vs EDTA blood) was “significantly reduced increase in 18S rDNA”, the “Released DNA (18S rDNA) after storage” value (18S ribosomal DNA; Example 3: 2.5%, 5% or 7.5% (v/v) with 1 μM Quinoline-Val-Asp-CH2-OPH and K2 EDTA) was “significantly lower amounts of released DNA” and the “Released DNA (18S rDNA) after storage” value (18S ribosomal DNA; Example 4: 2.5%, 5% or 7.5% DMPA with 1 μM caspase inhibitor, 7.2 mg K2 EDTA/ml) was “significantly lower amounts of released DNA”. The “Increase in 18S rDNA relative to time point 0” value (18S ribosomal DNA; Example 5: DMPA in different concentrations with 1 μM caspase inhibitor, 7.2 mg K2 EDTA/ml) was “significantly reduced increase in 18S rDNA”, the “Relative transcript levels of FOS, IL1B, IL8 and TP53 (CT values) over storage” value [1] was “stabilised expression levels” and the “Detection of lymphocytes by PE-conjugated anti-CD3 FACS” value (CD3 on lymphocytes) was “detectable for up to three days”. The “Hemolysis in plasma obtained from stabilized blood” value (blood samples) was “did not show signs of hemolysis”.
In the case of `O=c1c(O)c(-c2ccc(O)c(O)c2)oc2cc(O)cc(O)c12` [Quercetin], the “IC50 PKC” value (PKC) is given as 15 μg/ml. It strongly abrogated PI3K and Src kinases, mildly.
For “Cbz-Leu-Leu-Tyr-CH2F [Calpain Inhibitor IV]”, the “k2 calpain II” value (calpain II) is given as “= 28,900 M-1s-1). Also acts as an inhibitor of cathepsin L (k2 =”.
For Cbz-Val-Ala-Asp-CH2F, the Cytotoxicity (cells) is given as “no added cytotoxic effects”.
